# System: MDA-MB-231 cells
# Assay: RPPA (reverse phase protein array)
# Type: cell-based, human
# Description: RPPA analysis was performed by MD Anderson Cancer Center RPPA core facility.
# Examination of the Molecular Signaling Events) and/or Downstream Pathways Responsible for the Migration and Invasion Effects Observed by Exemplary Compound Treatment. To pinpoint these observations to a molecular signaling event or specific downstream pathway, reverse phase protein array (RPPA) analysis was performed (Table 4).
smiles,measurement,setting,value
"Cc1ncsc1-c1ccc(CNC(=O)[C@@H]2C[C@@H](O)CN2C(=O)[C@@H](NC(=O)CCOCCOc2ccc(Nc3ncc(C(F)(F)F)c(NCc4cccc(N(C)S(C)(=O)=O)c4)n3)cc2)C(C)(C)C)cc1 [Compound 102, (2S,4R)-1-((S)-3,3-dimethyl-2-(3-(2-(4-((4-((3-(N-methylmethylsulfonamido)benzyl)amino)-5-(trifluoromethyl)pyrimidin-2-yl)amino)phenoxy)ethoxy)propanamido)butanoyl)-4-hydroxy-N-(4-(4-methylthiazol-5-yl)benzyl)pyrrolidine-2-carboxamide]","rel. Protein level, Mnk1",500nM,97.2%
same,"rel. Protein level, Myosin-11",500nM,101.0%
same,"rel. Protein level, Myosin-IIa_pS1943",500nM,113.7%
same,"rel. Protein level, Myt1",500nM,93.2%
same,"rel. Protein level, N-Cadherin",500nM,104.0%
same,"rel. Protein level, N-Ras",500nM,98.6%
same,"rel. Protein level, NAPSIN-A",500nM,99.4%
same,"rel. Protein level, NDRG1_pT346",500nM,118.1%
same,"rel. Protein level, NDUFB4",500nM,100.5%
same,"rel. Protein level, NF-kB-p65_pS536",500nM,108.3%
same,"rel. Protein level, Notch1",500nM,105.8%
same,"rel. Protein level, Notch3",500nM,112.1%
same,"rel. Protein level, Oct-4",500nM,102.3%
same,"rel. Protein level, P-Cadherin",500nM,108.3%
same,"rel. Protein level, PAI-1",500nM,106.1%
same,"rel. Protein level, PAICS",500nM,98.1%
same,"rel. Protein level, PAK1",500nM,106.0%
same,"rel. Protein level, PAK4",500nM,95.1%
same,"rel. Protein level, PAR",500nM,158.2%
same,"rel. Protein level, PARP",500nM,104.5%
same,"rel. Protein level, PCNA",500nM,97.5%
same,"rel. Protein level, PD-1",500nM,98.8%
same,"rel. Protein level, PD-L1",500nM,95.8%
same,"rel. Protein level, PDGFR-b",500nM,124.5%
same,"rel. Protein level, PDHK1",500nM,102.2%
same,"rel. Protein level, PDK1",500nM,99.6%
same,"rel. Protein level, PDK1_pS241",500nM,103.2%
same,"rel. Protein level, PEA-15",500nM,97.9%
same,"rel. Protein level, PEA-15_pS116",500nM,98.0%
same,"rel. Protein level, PI3K-p85",500nM,100.1%
same,"rel. Protein level, PI3K-p110-a",500nM,107.4%
same,"rel. Protein level, PI3K-p110-b",500nM,94.8%
same,"rel. Protein level, PKA-a",500nM,105.1%
same,"rel. Protein level, PKC-b-II_pS660",500nM,93.7%
same,"rel. Protein level, PKC-delta_pS664",500nM,98.8%
same,"rel. Protein level, PKCa",500nM,113.3%
same,"rel. Protein level, PKM2",500nM,105.8%
same,"rel. Protein level, PLC-gamma2_pY759",500nM,97.9%
same,"rel. Protein level, PLK1",500nM,95.0%
same,"rel. Protein level, PMS2",500nM,96.4%
same,"rel. Protein level, PR",500nM,96.8%
same,"rel. Protein level, PRAS40",500nM,104.0%
same,"rel. Protein level, PRAS40_pT246",500nM,92.3%
same,"rel. Protein level, PREX1",500nM,102.5%
same,"rel. Protein level, PTEN",500nM,124.6%
same,"rel. Protein level, Paxillin",500nM,91.8%
same,"rel. Protein level, Pdcd4",500nM,120.2%
same,"rel. Protein level, Porin",500nM,97.8%
same,"rel. Protein level, RBM15",500nM,105.1%
same,"rel. Protein level, RIP",500nM,105.6%
same,"rel. Protein level, RPA32",500nM,98.4%
same,"rel. Protein level, RPA32_pS4-S8",500nM,102.8%
same,"rel. Protein level, RSK",500nM,99.0%
same,"rel. Protein level, Rab11",500nM,102.8%
same,"rel. Protein level, Rab25",500nM,100.2%
same,"rel. Protein level, Rad50",500nM,103.9%
same,"rel. Protein level, Rad51",500nM,89.6%
same,"rel. Protein level, Raptor",500nM,103.3%
same,"rel. Protein level, Rb",500nM,106.3%
same,"rel. Protein level, Rb_pS807_S811",500nM,92.3%
same,"rel. Protein level, Rheb",500nM,103.3%
same,"rel. Protein level, Rictor",500nM,126.9%
same,"rel. Protein level, Rictor_pT1135",500nM,92.3%
same,"rel. Protein level, S6",500nM,112.2%
same,"rel. Protein level, S6_pS235_S236",500nM,57.3%
same,"rel. Protein level, S6_pS240_S244",500nM,51.9%
same,"rel. Protein level, b-Actin",500nM,97.4%
same,"rel. Protein level, b-Catenin",500nM,108.4%
same,"rel. Protein level, b-Catenin_pT41_S45",500nM,96.8%
same,"rel. Protein level, c-Abl",500nM,95.2%
same,"rel. Protein level, c-IAP2",500nM,100.4%
same,"rel. Protein level, c-Jun_pS73",500nM,92.3%
same,"rel. Protein level, c-Kit",500nM,100.1%
same,"rel. Protein level, c-Met_pY1234_Y1235",500nM,101.1%
same,"rel. Protein level, c-Myc",500nM,89.2%
same,"rel. Protein level, cdc2_pY15",500nM,92.3%
same,"rel. Protein level, cdc25C",500nM,99.5%
same,"rel. Protein level, eEF2",500nM,98.9%
same,"rel. Protein level, eEF2K",500nM,110.8%
same,"rel. Protein level, eIF4E",500nM,102.9%
same,"rel. Protein level, eIF4E_pS209",500nM,95.8%
same,"rel. Protein level, eIF4G",500nM,96.7%
same,"rel. Protein level, mTOR",500nM,98.9%
same,"rel. Protein level, mTOR_pS2448",500nM,92.3%
same,"rel. Protein level, p21",500nM,98.7%
same,"rel. Protein level, p27-Kip-1",500nM,101.1%
same,"rel. Protein level, p27_pT198",500nM,100.1%
same,"rel. Protein level, p38-MAPK",500nM,93.4%
same,"rel. Protein level, p38_pT180_Y182",500nM,93.4%
same,"rel. Protein level, p44-42-MAPK",500nM,112.7%
same,"rel. Protein level, p53",500nM,113.6%
same,"rel. Protein level, p70-S6K1",500nM,109.6%
same,"rel. Protein level, p70-S6K_pT389",500nM,92.3%
same,"rel. Protein level, p90RSK_pT573",500nM,98.5%
same,Fak level by RPPA (in words),"10% FBS, 8 hours",Fak degradation
same,p-Fak level by RPPA (in words),"10% FBS, 8 hours",reduced levels of p-Fak
same,"rel. Protein level [%], SCD","antibody SCD, 500nM, n = 2",94.3%
same,"rel. Protein level [%], SDHA","antibody SDHA, 500nM, n = 2",102.0%
same,"rel. Protein level [%], SF2","antibody SF2, 500nM, n = 2",105.3%
same,"rel. Protein level [%], SHP-2_pY542","antibody SHP-2_pY542, 500nM, n = 2",96.4%
same,"rel. Protein level [%], SLC1A5","antibody SLC1A5, 500nM, n = 2",100.8%
same,"rel. Protein level [%], SOD1-","antibody SOD1-, 500nM, n = 2",101.4%
same,"rel. Protein level [%], SOD2","antibody SOD2, 500nM, n = 2",103.5%
same,"rel. Protein level [%], STING","antibody STING, 500nM, n = 2",136.3%
same,"rel. Protein level [%], Shc_pY317","antibody Shc_pY317, 500nM, n = 2",100.3%
same,"rel. Protein level [%], Slfn11","antibody Slfn11, 500nM, n = 2",96.5%
same,"rel. Protein level [%], Smac","antibody Smac, 500nM, n = 2",100.9%
same,"rel. Protein level [%], Smad1","antibody Smad1, 500nM, n = 2",96.6%
same,"rel. Protein level [%], Smad3","antibody Smad3, 500nM, n = 2",110.8%
same,"rel. Protein level [%], Smad4","antibody Smad4, 500nM, n = 2",100.2%
same,"rel. Protein level [%], Snail","antibody Snail, 500nM, n = 2",107.4%
same,"rel. Protein level [%], Sox2","antibody Sox2, 500nM, n = 2",105.3%
same,"rel. Protein level [%], Src","antibody Src, 500nM, n = 2",103.5%
same,"rel. Protein level [%], Src_pY419","antibody Src_pY419, 500nM, n = 2",98.9%
same,"rel. Protein level [%], Src_pY527","antibody Src_pY527, 500nM, n = 2",91.0%
same,"rel. Protein level [%], Stat3","antibody Stat3, 500nM, n = 2",99.2%
same,"rel. Protein level [%], Stat3_pY705","antibody Stat3_pY705, 500nM, n = 2",119.9%
same,"rel. Protein level [%], Stat5a","antibody Stat5a, 500nM, n = 2",111.4%
same,"rel. Protein level [%], Stathmin-1","antibody Stathmin-1, 500nM, n = 2",101.8%
same,"rel. Protein level [%], Syk","antibody Syk, 500nM, n = 2",92.8%
same,"rel. Protein level [%], TAZ","antibody TAZ, 500nM, n = 2",89.0%
same,"rel. Protein level [%], TFAM","antibody TFAM, 500nM, n = 2",107.8%
same,"rel. Protein level [%], TFRC","antibody TFRC, 500nM, n = 2",99.8%
same,"rel. Protein level [%], TIGAR","antibody TIGAR, 500nM, n = 2",96.8%
same,"rel. Protein level [%], TRIM25","antibody TRIM25, 500nM, n = 2",108.0%
same,"rel. Protein level [%], TSC1","antibody TSC1, 500nM, n = 2",106.5%
same,"rel. Protein level [%], TTF1","antibody TTF1, 500nM, n = 2",102.7%
same,"rel. Protein level [%], TUFM","antibody TUFM, 500nM, n = 2",96.9%
same,"rel. Protein level [%], TWIST","antibody TWIST, 500nM, n = 2",96.9%
same,"rel. Protein level [%], Tau","antibody Tau, 500nM, n = 2",101.7%
same,"rel. Protein level [%], Transglutaminase","antibody Transglutaminase, 500nM, n = 2",107.8%
same,"rel. Protein level [%], Tuberin","antibody Tuberin, 500nM, n = 2",106.3%
same,"rel. Protein level [%], Tuberin_pT1462","antibody Tuberin_pT1462, 500nM, n = 2",93.5%
same,"rel. Protein level [%], Tyro3","antibody Tyro3, 500nM, n = 2",98.8%
same,"rel. Protein level [%], U-Histone-H2B","antibody U-Histone-H2B, 500nM, n = 2",108.7%
same,"rel. Protein level [%], UBAC1","antibody UBAC1, 500nM, n = 2",100.4%
same,"rel. Protein level [%], UGT1A","antibody UGT1A, 500nM, n = 2",94.3%
same,"rel. Protein level [%], ULK1_pS757","antibody ULK1_pS757, 500nM, n = 2",100.9%
same,"rel. Protein level [%], VASP","antibody VASP, 500nM, n = 2",108.6%
same,"rel. Protein level [%], VEGFR-2","antibody VEGFR-2, 500nM, n = 2",93.7%
same,"rel. Protein level [%], VHL-EPPK1","antibody VHL-EPPK1, 500nM, n = 2",90.7%
same,"rel. Protein level [%], WIPI1","antibody WIPI1, 500nM, n = 2",112.5%
same,"rel. Protein level [%], WIPI2","antibody WIPI2, 500nM, n = 2",108.8%
same,"rel. Protein level [%], Wee1","antibody Wee1, 500nM, n = 2",92.3%
same,"rel. Protein level [%], Wee1_pS642","antibody Wee1_pS642, 500nM, n = 2",94.7%
same,"rel. Protein level [%], XBP-1","antibody XBP-1, 500nM, n = 2",92.8%
same,"rel. Protein level [%], XPA","antibody XPA, 500nM, n = 2",96.4%
same,"rel. Protein level [%], XPF","antibody XPF, 500nM, n = 2",109.0%
same,"rel. Protein level [%], XRCC1","antibody XRCC1, 500nM, n = 2",104.0%
same,"rel. Protein level [%], YAP","antibody YAP, 500nM, n = 2",95.4%
same,"rel. Protein level [%], YAP_pS127","antibody YAP_pS127, 500nM, n = 2",106.2%
same,"rel. Protein level [%], YB1_pS102","antibody YB1_pS102, 500nM, n = 2",92.3%
same,"rel. Protein level [%], ZAP-70","antibody ZAP-70, 500nM, n = 2",92.5%

# From patent US20200038513A1, “MODULATORS OF FAK PROTEOLYSIS AND ASSOCIATED METHODS OF USE” (ARVINAS OPERATIONS, INC., priority 2018, published 2020)
